In patent US4786723A, “7-hydroxyguanine compounds, process for preparing said compounds, and anti-tumor agent containing the same” (Kanegafuchi Chemical Industry Co., Ltd., priority 1985, dated 1988):

How the values were obtained:
L-1210 leukemia = experiment: Anti-tumor activity against L-1210 leukemia in mice; assay type: in vivo, mouse; settings: intraperitoneal, 5 days, BDF1 female mice
Protocol: Anti-tumor activity against L-1210 leukemia in mice
BDF1 female mice weighing 18-23 g (one group: 3 mice) were used. The mice were intraperitoneally inoculated with mouse L-1210 leukemia cells (1×10^5). […] As a control, 50 mM phosphate buffer (pH 7.4) without a test compound was intraperitoneally administered likewise. Based on the data, the life-prolongation ratio of the test compound was calculated.

Acute toxicity = settings: mouse, in vivo, ip; ICR male mice weighing 18-23 g, intraperitoneally administered for one week; read-out: 50% lethal toxicity (LD50)
Protocol: ICR male mice weighing 18-23 g were intraperitoneally administered with the test compounds for one week, and the 50% lethal toxicity (LD50 : mg/kg) was measured by a conventional method.

SMILES | Life-prolongation ratio (L-1210 leukemia; 1.0 mg/kg/day) | Life-prolongation ratio (L-1210 leukemia; 4.0 mg/kg/day) | Life-prolongation ratio (L-1210 leukemia; 16.0 mg/kg/day) | LD50 (Acute toxicity)
Nc1nc(O)c2c(n1)n([C@@H]1O[C@H](CO)[C@@H](O)[C@H]1O)c[n+]2[O-] [Compound A, 7-hydroxyguanine riboside] | 128.9 | 148.2 | 148.2 | 192 mg/kg
Nc1nc(O)c2c(n1)n([C@H]1C[C@H](O)[C@@H](CO)O1)c[n+]2[O-] [Compound B, 7-hydroxyguanine deoxyriboside] | 120.5 | 160.2 | 168.7 | 172 mg/kg
